Measured values published in patent US20030206968A1, “Fungicidal mixtures” (priority 1999, published 2003).

Experiments:
Assay type in all cases: in vivo
Blumeria graminis [1] = assay: Greenhouse, Blumeria graminis on wheat, 1 day residual
Excerpt: (§1) The fungicides are applied in single treatments, or in a combination comprising an azolopyrimidine of formula I and a compound selected from the classes (A), (B) and (C) as defined above. The compounds are applied in form of an aqueous spray mix obtained from a concentrated formulation or the technical material.
(§2) 1. Seed is planted in 6 cm diameter plastic pots and maintained in the greenhouse.
(§3) 2. When the primary leaf is fully expanded in the case of cereals or several leaves are present in the case of dicots, formulated test compounds are sprayed with a three nozzle overhead fungicide sprayer to near run-off. Alternatively, a single nozzle overhead track sprayer is used for application of the compounds to cereals at a rate of 200 l/ha. Plants are then allowed to air-dry.
(§4) 3. Inoculation precedes treatment in the case of curative evaluations and follows treatment in case of residual evaluations. For inoculation of powdery mildew disease, plants are set up on greenhouse benches with bottom watering mats and inoculated by dusting them with conidia from infected plants. Between inoculation and treatment for curative evaluations and between treatment and inoculation for residual evaluations, plants are maintained in the greenhouse with bottom watering.
(§5) 4. Disease on the foliage as percent leaf area with disease symptoms/signs is evaluated about 7 days after inoculation. In the case of wheat, the tips and bases of the leaves are excluded from the evaluation. [formula]
(§6) 1. Technical compounds are formulated in a solvent/surfactant system consisting of 5% acetone and 0.05% Tween 20 in deionized water. Compounds are dissolved in acetone prior to addition of the water; the Tween 20 can be added through either the acetone or the water. Dilutions are made using the solvent/surfactant system. Formulated compounds are prepared using deionized water.
(§7) 2. Two kinds of controls are included: Plants treated with the solvent/surfactant solution and inoculated (Solvent Blank). Untreated plants which are inoculated (Inoculated Control).
(§8) Assessments of the diseases took place at the indicated day after the application of the compounds. Per cent infected leaf area infected was evaluated. The efficacy of the compounds/compounds mixtures to control the diseases was calculated by using the formula given above under item 4: […]
(§9) Synergy was calculated using the % disease control values of specific treatments for the two COLBY formula given hereinabove
Fungicidal efficacy of the mixture of Azolopyrimidine C+quinoxyfen (1 day residual)) against Blumeria graminis on wheat The tank mix was obtained from technical material of Azolopyrimidine C and quinoxyfen.
Fungicidal efficacy of the mixture of Azolopyrimidine C+metalaxyl (1 day residual) against Blumeria graminis on wheat The tank mix was obtained from technical material of Azolopyrimidine C and metalaxyl.
Fungicidal efficacy of the mixture of Azolopyrimidine C+famoxadone (1 day residual) against Blumeria graminis on wheat The tank mix was obtained from technical material of Azolopyrimidine C and famoxadone.

Pyrenophora teres = assay: Greenhouse, Pyrenophora teres on barley, 1 day residual; details: Example 10
Procedure: as §1, with “The trials are carried out under greenhouse (Examples 1 to 32) or field conditions (Examples 33 to 40) in residual or curative applications. The fungicides” for “The fungicides”
as §2, §3, §4
(§10) For inoculation of non-powdery mildew diseases, an aqueous spore suspension of the pathogen is applied to the plant and the plants are kept 1-2 days in a moist infection chamber before being returned to the greenhouse where they are maintained by bottom watering.
as §5, §6, §7, §8, §9
Fungicidal efficacy of the mixture of Azolopyrimidine C+metconazole (1 day residual) against Pyrenophora teres on barley The tank mix was obtained from a SC formulation containing 100 g Azolopyrimidine C per liter and an EC containing 100 g metconazole per liter.

Puccinia recondita = assay: Greenhouse, Puccinia recondita on wheat, 1 day curative, plants sprayed twice, once with each compound; details: Example 12
Procedure: as §1, with “The trials are carried out under greenhouse (Examples 1 to 32) or field conditions (Examples 33 to 40) in residual or curative applications. The fungicides” for “The fungicides”
as §2, §3, §4, §10, §5, §6, §7, §8, §9
Fungicidal efficacy of the mixture of Azolopyrimidine C+kresoxim methyl (1 day curative) against Puccinia recondita on wheat Plants sprayed twice, once with each compound. The tank mixes were obtained from a SC formulation containing 100 g Azolopyrimidine C per liter and a WG containing 500 g kresoxim methyl per kg.

Blumeria graminis [2] = assay: Field test, Blumeria graminis on wheat; details: 17 days after application
In short: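 Field trial on wheat: formulated products (SC/EC tank mixes, alone or in mixtures) sprayed as aqueous mix at 400 l/ha by good agricultural practice. Percent infected leaf area assessed 15 or 17 days after application; efficacy calculated as disease control, with synergy judged by the Colby formula.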

Blumeria graminis [3] = assay: Greenhouse, Blumeria graminis on barley, 2 days curative
Procedure: as §1, with “The trials are carried out under greenhouse (Examples 1 to 32) or field conditions (Examples 33 to 40) in residual or curative applications. The fungicides” for “The fungicides”
as §2, §3, §4, §5, §6, §7, §8, §9
Fungicidal efficacy of the mixture of (S)-Azolopyrimidine C in admixture with Fenhexamid (2 days curative) against Blumeria graminis on barley. The tank mixes were obtained from technical material of (S)-Azolopyrimidine C and Fenhexamid.
Fungicidal efficacy of the mixture of (S)-Azolopyrimidine C in admixture with Azoxystrobin or Trifloxystrobin (2 days curative) against Blumeria graminis on barley. The tank mixes were obtained from technical material of (S)-Azolopyrimidine C and Azoxystrobin or Trifloxystrobin.

## CC(Nc1c(-c2c(F)cc(F)cc2F)c(Cl)nc2ncnn12)C(F)(F)F (centres unmarked) [Azolopyrimidine C, 5-chloro-6-(2,4,6-trifluorophenyl)-7-(1,1,1-trifluoroprop-2-ylamino)-[1,2,4]triazolo[1,5-a]pyrimidine]
Blumeria graminis [1]; Example 16, dose rate 0.06 ppm
  Observed Efficacy: 0%
Blumeria graminis [1]; Example 16, dose rate 0.25 ppm
  Observed Efficacy: 19%
Blumeria graminis [1]; Example 16, dose rate 1 ppm
  Observed Efficacy: 42%
Blumeria graminis [1]; Example 16, dose rate 4 ppm
  Observed Efficacy: 96%
Blumeria graminis [1]; Example 17, dose rate 0.06 ppm
  Observed Efficacy: 0%
Blumeria graminis [1]; Example 17, dose rate 0.25 ppm
  Observed Efficacy: 19%
Blumeria graminis [1]; Example 17, dose rate 1 ppm
  Observed Efficacy: 42%
Blumeria graminis [1]; Example 17, dose rate 4 ppm
  Observed Efficacy: 96%
Blumeria graminis [1]; Example 18, dose rate 0.06 ppm
  Observed Efficacy: 0%
Blumeria graminis [1]; Example 18, dose rate 0.25 ppm
  Observed Efficacy: 19%
Blumeria graminis [1]; Example 18, dose rate 1 ppm
  Observed Efficacy: 42%
Blumeria graminis [1]; Example 18, dose rate 4 ppm
  Observed Efficacy: 96%
Pyrenophora teres; dose rate 10 ppm
  Observed Efficacy: 0%
Pyrenophora teres; dose rate 25 ppm
  Observed Efficacy: 0%
Pyrenophora teres; dose rate 40 ppm
  Observed Efficacy: 0%
Pyrenophora teres; dose rate 50 ppm
  Observed Efficacy: 0%
Pyrenophora teres; dose rate 125 ppm
  Observed Efficacy: 0%

## 5-chloro-6-(2,4,6-trifluorophenyl)-7-(1,1,1-trifluoroprop-2-ylamino)-[1,2,4]triazolo[1,5-a]pyrimidine [(S)-Azolopyrimidine C]
Puccinia recondita; dose rate 25 g/ha
  Observed Efficacy: 25%
Puccinia recondita; dose rate 50 g/ha
  Observed Efficacy: 66%
Puccinia recondita; dose rate 100 g/ha
  Observed Efficacy: 79%
Puccinia recondita; dose rate 200 g/ha
  Observed Efficacy: 97%
Puccinia recondita; dose rate 400 g/ha
  Observed Efficacy: 99%
Blumeria graminis [2]; Table XXXVI, (S)-Azolopyrimidine C 25 g/ha alone
  Observed Efficacy: 63
Blumeria graminis [2]; Table XXXVI, (S)-Azolopyrimidine C 50 g/ha alone
  Observed Efficacy: 78
Blumeria graminis [2]; Table XXXVI, (S)-Azolopyrimidine C 75 g/ha alone
  Observed Efficacy: 74
Blumeria graminis [2]; Table XXXVII, (S)-Azolopyrimidine C 25 g/ha alone
  Observed Efficacy: 63
Blumeria graminis [2]; Table XXXVII, (S)-Azolopyrimidine C 50 g/ha alone
  Observed Efficacy: 78
Blumeria graminis [2]; Table XXXVII, (S)-Azolopyrimidine C 75 g/ha alone
  Observed Efficacy: 74
Blumeria graminis [2]; Table XXXVII, (S)-Azolopyrimidine C 100 g/ha alone
  Observed Efficacy: 96
Blumeria graminis [3]; Example 26, dose rate 0.74 ppm
  Observed Efficacy: 0%
Blumeria graminis [3]; Example 26, dose rate 2.2 ppm
  Observed Efficacy: 8%
Blumeria graminis [3]; Example 26, dose rate 6.7 ppm
  Observed Efficacy: 29%
Blumeria graminis [3]; Example 26, dose rate 20 ppm
  Observed Efficacy: 37%
Blumeria graminis [3]; Example 26, dose rate 60 ppm
  Observed Efficacy: 60%
Blumeria graminis [3]; Example 26, dose rate 180 ppm
  Observed Efficacy: 86%
Blumeria graminis [3]; Example 29, dose rate 1.6 ppm
  Observed Efficacy: 0%
Blumeria graminis [3]; Example 29, dose rate 3.1 ppm
  Observed Efficacy: 1%
Blumeria graminis [3]; Example 29, dose rate 6.3 ppm
  Observed Efficacy: 15%
Blumeria graminis [3]; Example 29, dose rate 12.5 ppm
  Observed Efficacy: 31%
Blumeria graminis [3]; Example 29, dose rate 25 ppm
  Observed Efficacy: 54%
Blumeria graminis [3]; Example 29, dose rate 50 ppm
  Observed Efficacy: 73%
